Results: PubChem BioAssay (NCI)
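48-hour exposure; five concentrations; linearly interpolated endpoints. GI50 is the concentration that inhibits growth by half. TGI denotes the concentration required for complete inhibition of growth.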

How the values were obtained:
Test in all cases: NCI anticancer screen, dose series, 48 h
[1] = tested on: HL-60(TB) leukemia
[2] = tested on: PC-3 prostate
[3] = tested on: OVCAR-4 ovarian
[4] = tested on: HCC-2998 colon
[5] = tested on: OVCAR-3 ovarian
[6] = tested on: UACC-62 melanoma
[7] = tested on: SR leukemia
[8] = tested on: NCI-H522 lung
[9] = tested on: HCT-116 colon
[10] = tested on: SK-OV-3 ovarian
[11] = tested on: SF-539 CNS
[12] = tested on: K-562 leukemia
[13] = tested on: UACC-257 melanoma
[14] = tested on: SF-295 CNS
[15] = tested on: HOP-62 NSCLC
[16] = tested on: BT-549 breast
[17] = tested on: LOX IMVI melanoma
[18] = tested on: SNB-19 CNS
[19] = tested on: MDA-MB-435
[20] = tested on: HCT-15 colon
[21] = tested on: A498 renal
[22] = tested on: OVCAR-5 ovarian
[23] = tested on: SK-MEL-28 melanoma
[24] = tested on: T-47D breast
[25] = tested on: SN12C renal
[26] = tested on: TK-10 renal
[27] = tested on: SK-MEL-5 melanoma
[28] = tested on: IGROV1 ovarian
[29] = tested on: MDA-MB-231 breast
[30] = tested on: CAKI-1 renal
[31] = tested on: MALME-3M melanoma
[32] = tested on: M14 melanoma
[33] = tested on: SNB-75 CNS
[34] = tested on: DU-145 prostate
[35] = tested on: SF-268 CNS
[36] = tested on: RXF 393 renal
[37] = tested on: HOP-92 NSCLC
[38] = tested on: ACHN renal
[39] = tested on: EKVX NSCLC
[40] = tested on: 786-0 renal
[41] = tested on: UO-31 renal
[42] = tested on: SK-MEL-2 melanoma
[43] = tested on: U251 CNS

Work on `Cc1nnc([S-])o1.[Au+].c1ccc([PH+](c2ccccc2)c2ccccc2)cc1` yielded a GI50 [1] of 2990 nM, a TGI [1] of 9120 nM and a GI50 [2] of 1590 nM. For the same compound, the TGI [2] was 3070 nM, the GI50 [3] was 1590 nM and the TGI [3] was 2950 nM. The GI50 [4] was 1820 nM, the TGI [4] was 3270 nM and the GI50 [5] was 1610 nM. It also gave a TGI [5] of 2980 nM, a GI50 [6] of 1350 nM and a TGI [6] of 2700 nM. The GI50 [7] was 1210 nM, the TGI [7] was > 100000 nM and the GI50 [8] was 595 nM. It also gave a TGI [8] of 2030 nM, a GI50 [9] of 1600 nM and a TGI [9] of 3010 nM. For the same compound, the GI50 [10] was 2280 nM, the TGI [10] was 4170 nM and the GI50 [11] was 1630 nM. The TGI [11] was 2990 nM, the GI50 [12] was 2380 nM and the TGI [12] was > 100000 nM. For the same compound, the GI50 [13] was 1570 nM, the TGI [13] was 3110 nM and the GI50 [14] was 1890 nM. The TGI [14] was 3500 nM, the GI50 [15] was 1870 nM and the TGI [15] was 3530 nM. For the same compound, the GI50 [16] was 1580 nM, the TGI [16] was 2950 nM and the GI50 [17] was 1630 nM. For the same compound, the TGI [17] was 3000 nM, the GI50 [18] was 1610 nM and the TGI [18] was 2980 nM. The GI50 [19] was 1620 nM, the TGI [19] was 3020 nM and the GI50 [20] was 1490 nM. For the same compound, the TGI [20] was 3080 nM, the GI50 [21] was 1570 nM and the TGI [21] was 2930 nM. It also gave a GI50 [22] of 1820 nM, a TGI [22] of 3270 nM and a GI50 [23] of 1510 nM. It also gave a TGI [23] of 2860 nM, a GI50 [24] of 1870 nM and a TGI [24] of 4930 nM. For the same compound, the GI50 [25] was 1670 nM, the TGI [25] was 3070 nM and the GI50 [26] was 1800 nM. The TGI [26] was 3210 nM, the GI50 [27] was 1550 nM and the TGI [27] was 2940 nM. It also gave a GI50 [28] of 1470 nM, a TGI [28] of 2820 nM and a GI50 [29] of 1680 nM. The TGI [29] was 3110 nM, the GI50 [30] was 1470 nM and the TGI [30] was 2800 nM. For the same compound, the GI50 [31] was 1600 nM, the TGI [31] was 3060 nM and the GI50 [32] was 1790 nM. It also gave a TGI [32] of 3340 nM, a GI50 [33] of 1320 nM and a TGI [33] of 2600 nM. For the same compound, the GI50 [34] was 1750 nM, the TGI [34] was 3260 nM and the GI50 [35] was 1620 nM. The TGI [35] was 3310 nM, the GI50 [36] was 1240 nM and the TGI [36] was 2510 nM. For the same compound, the GI50 [37] was 1640 nM, the TGI [37] was 3030 nM and the GI50 [38] was 1710 nM. The TGI [38] was 3080 nM, the GI50 [39] was 1810 nM and the TGI [39] was 3240 nM. For the same compound, the GI50 [40] was 1640 nM, the TGI [40] was 3000 nM and the GI50 [41] was 1660 nM. For the same compound, the TGI [41] was 3020 nM, the GI50 [42] was 1720 nM and the TGI [42] was 3240 nM. For the same compound, the GI50 [43] was 1500 nM and the TGI [43] was 2860 nM.
